Consider 16 compounds from BindingDB's records for doi:10.1021/jm960441m (Upjohn, 1997).

The target in the first assay is T1, Dimer of Gag-Pol polyprotein [489-587] (Human immunodeficiency virus 1, UniProt P12497).
T1 construct: 489-587
Description: Protease Inhibition Assay.
Details: not given
The source says:
(§1) HIV-1 protease was purified and refolded from E. coli inclusion bodies. […] In the presence of HIV-l protease, the substrate is rapidly cleaved into two parts. The biotinylated amino terminal fragment binds to the avidin beads while the FITC-containing carboxy1 terminal fragment is removed through the membrane. […] The bound fluorescence is obtained by processing on an IDEXX Screen Machine. Determination of Ki values with this assay requires analysis under conditions in which substrate concentration resides substantially below Km and the inhibitor concentrations greatly exceeds the Ki value and the enzyme concentration.
On to `O=c1oc2c(c(O)c1C(c1cccc(NS(=O)(=O)c3ccc(C(F)(F)F)c(C(F)(F)F)c3)c1)C1CC1)CCCCCC2` (stereo unspecified) [N-{3-[cyclopropyl({4-hydroxy-2-oxo-2H,5H,6H,7H,8H,9H,10H-cycloocta[b]pyran-3-yl})methyl]phenyl}-3,4-bis(trifluoromethyl)benzene-1-sulfonamide], for which the Ki (commonly a dissociation constant, usually derived from enzyme kinetics or from competition with a known ligand) turned out to be 47 nM.

For the compound `O=c1oc2c(c(O)c1C(c1cccc(NS(=O)(=O)c3ccc(OC(F)(F)F)cc3)c1)C1CC1)CCCCCC2` (stereo unspecified) [N-{3-[cyclopropyl({4-hydroxy-2-oxo-2H,5H,6H,7H,8H,9H,10H-cycloocta[b]pyran-3-yl})methyl]phenyl}-4-(trifluoromethoxy)benzene-1-sulfonamide], affinity was put at a Ki of 4 nM.

`O=c1oc2c(c(O)c1C(c1cccc(NS(=O)(=O)c3ccc(C(F)(F)F)cc3)c1)C1CC1)CCCCCC2` (stereo unspecified) [N-{3-[cyclopropyl({4-hydroxy-2-oxo-2H,5H,6H,7H,8H,9H,10H-cycloocta[b]pyran-3-yl})methyl]phenyl}-4-(trifluoromethyl)benzene-1-sulfonamide]: affinity was put at a Ki of 6.2 nM.

Consider `O=c1oc2c(c(O)c1C(c1cccc(NS(=O)(=O)c3ccc(I)cc3)c1)C1CC1)CCCCCC2` (stereo unspecified) [N-{3-[cyclopropyl({4-hydroxy-2-oxo-2H,5H,6H,7H,8H,9H,10H-cycloocta[b]pyran-3-yl})methyl]phenyl}-4-iodobenzene-1-sulfonamide], for which the Ki was determined as 3.1 nM.

In turn, `O=c1oc2c(c(O)c1C(c1cccc(NS(=O)(=O)c3ccc([N+](=O)[O-])cc3)c1)C1CC1)CCCCCC2` (stereo unspecified) [N-{3-[cyclopropyl({4-hydroxy-2-oxo-2H,5H,6H,7H,8H,9H,10H-cycloocta[b]pyran-3-yl})methyl]phenyl}-4-nitrobenzene-1-sulfonamide] displayed a Ki of 2.7 nM.

In the case of `O=c1oc2c(c(O)c1C(c1cccc(NS(=O)(=O)c3cccc4ccccc34)c1)C1CC1)CCCCCC2` (stereo unspecified) [N-{3-[cyclopropyl({4-hydroxy-2-oxo-2H,5H,6H,7H,8H,9H,10H-cycloocta[b]pyran-3-yl})methyl]phenyl}naphthalene-1-sulfonamide], the affinity, expressed as Ki, was 5.5 nM.

With `O=c1oc2c(c(O)c1C(c1cccc(NS(=O)(=O)c3ccc4ccccc4c3)c1)C1CC1)CCCCCC2` (stereo unspecified) [N-{3-[cyclopropyl({4-hydroxy-2-oxo-2H,5H,6H,7H,8H,9H,10H-cycloocta[b]pyran-3-yl})methyl]phenyl}naphthalene-2-sulfonamide], the Ki amounted to 4.1 nM.

As for `O=c1oc2c(c(O)c1C(c1cccc(NS(=O)(=O)c3cnccn3)c1)C1CC1)CCCCCC2` (stereo unspecified) [N-{3-[cyclopropyl({4-hydroxy-2-oxo-2H,5H,6H,7H,8H,9H,10H-cycloocta[b]pyran-3-yl})methyl]phenyl}pyrazine-2-sulfonamide], the Ki is 0.2 nM.

The compound `O=c1oc2c(c(O)c1C(c1cccc(NS(=O)(=O)c3ncccn3)c1)C1CC1)CCCCCC2` (stereo unspecified) [N-{3-[cyclopropyl({4-hydroxy-2-oxo-2H,5H,6H,7H,8H,9H,10H-cycloocta[b]pyran-3-yl})methyl]phenyl}pyrimidine-2-sulfonamide] had a Ki of 0.8 nM.

In the case of `O=c1oc2c(c(O)c1C(c1cccc(NS(=O)(=O)c3ccc4ccccc4n3)c1)C1CC1)CCCCCC2` (stereo unspecified) [N-{3-[cyclopropyl({4-hydroxy-2-oxo-2H,5H,6H,7H,8H,9H,10H-cycloocta[b]pyran-3-yl})methyl]phenyl}quinoline-2-sulfonamide], the affinity corresponds to a Ki of 0.4 nM.

On to `O=c1oc2c(c(O)c1C(c1cccc(NS(=O)(=O)c3cccs3)c1)C1CC1)CCCCCC2` (stereo unspecified) [N-{3-[cyclopropyl({4-hydroxy-2-oxo-2H,5H,6H,7H,8H,9H,10H-cycloocta[b]pyran-3-yl})methyl]phenyl}thiophene-2-sulfonamide], for which the affinity corresponds to a Ki of 6.3 nM.

Still in this assay, the particulars now being: pH 5; 22 °C.
In turn, `O=c1oc2c(c(O)c1C(c1cccc(NS(=O)(=O)c3ccccc3F)c1)C1CC1)CCCCCC2` (stereo unspecified) [N-{3-[cyclopropyl({4-hydroxy-2-oxo-2H,5H,6H,7H,8H,9H,10H-cycloocta[b]pyran-3-yl})methyl]phenyl}-2-fluorobenzene-1-sulfonamide] yielded a Ki of 11 nM.

`O=c1oc2c(c(O)c1C(c1cccc(NS(=O)(=O)CCc3ccccc3)c1)C1CC1)CCCCCC2` (stereo unspecified) [N-{3-[cyclopropyl({4-hydroxy-2-oxo-2H,5H,6H,7H,8H,9H,10H-cycloocta[b]pyran-3-yl})methyl]phenyl}-2-phenylethane-1-sulfonamide]: the Ki is 3.9 nM.

Regarding `O=c1oc2c(c(O)c1C(c1cccc(NS(=O)(=O)c3cccc(C(F)(F)F)c3)c1)C1CC1)CCCCCC2` (stereo unspecified) [N-{3-[cyclopropyl({4-hydroxy-2-oxo-2H,5H,6H,7H,8H,9H,10H-cycloocta[b]pyran-3-yl})methyl]phenyl}-3-(trifluoromethyl)benzene-1-sulfonamide], the inhibition constant Ki amounted to 3 nM.

As for `O=c1oc2c(c(O)c1C(c1cccc(NS(=O)(=O)c3cccc([N+](=O)[O-])c3)c1)C1CC1)CCCCCC2` (stereo unspecified) [N-{3-[cyclopropyl({4-hydroxy-2-oxo-2H,5H,6H,7H,8H,9H,10H-cycloocta[b]pyran-3-yl})methyl]phenyl}-3-nitrobenzene-1-sulfonamide], the inhibitory constant (Ki) was found to be 4.7 nM.

For the next assay, the target named is T2, Dimer of Gag-Pol polyprotein [489-587] (Human immunodeficiency virus 1, UniProt P04585).
T2 construct: 489-587
In words: Protease Inhibition Assay. The note with it: pH 5; 22 °C.
Description: as §1
Compound `N#Cc1cccc(S(=O)(=O)Nc2cccc(C(c3c(O)c4c(oc3=O)CCCCCC4)C3CC3)c2)c1` (stereo unspecified) [3-cyano-N-{3-[cyclopropyl({4-hydroxy-2-oxo-2H,5H,6H,7H,8H,9H,10H-cycloocta[b]pyran-3-yl})methyl]phenyl}benzene-1-sulfonamide] displayed an inhibition constant (Ki) of 0.6 nM.
